The boiling point is the temperature at which the vapour pressure of the liquid equals the pressure above it. The term melting point denotes the temperature of the solid-liquid transition.

Settings in one data set: not given
In turn, `CCCC(C)CC(C)(C)C` (configuration not stated) displayed a boiling point of 148 °C.
In turn, `COc1c(F)c(F)c(F)c(F)c1F` returned a boiling point of 138 °C and a melting point of -37 °C.
The molecule `CNC(=O)Oc1cccc(N=CN(C)C)c1.Cl` yielded a log10 vapour pressure (mmHg) of -7.92.
Regarding `Oc1ccc(Cc2ccccc2)cc1`, the boiling point was 322 °C, the melting point was determined as 84 °C and the ready biodegradability result is given as “not readily biodegradable”.
Regarding `CC(C)COCOCC(C)C`, the boiling point was determined as 166 °C.
As for `O=[N+]([O-])c1c(Cl)c(Cl)cc(Cl)c1Cl`, the boiling point came to 304 °C, the log10 Koc (L/kg) stood at 4.05, the log10 vapour pressure (mmHg) is -2.74 and the melting point was 99.5 °C.
Turning to `CN1CN(C)CN(C)C1`, the boiling point was 163 °C and the melting point is -27 °C.
The matching figures for `CCc1cccc(-c2ccccc2)c1`: 284 °C and -27.5 °C.
In turn, `CN(C)CCCCN(C)C` came in with a boiling point of 168 °C.
`CCc1cc(C)c(C)cc1C` returned a boiling point of 213 °C and a melting point of -13.5 °C.
`O=C(Cl)c1ccccc1Cl` showed a boiling point of 238 °C and a melting point of -4 °C.
Consider `CC=C(CC)CC`, for which the boiling point is 96 °C and the log10 vapour pressure (mmHg) is 1.72.
Turning to `CCOC(=O)c1ccccc1C`, the boiling point was determined as 227 °C.
The molecule `S=C(SSC(=S)N1CCCCC1)N1CCCCC1` came in with a melting point of 138 °C.
For `CC(=O)Nc1ccc(/N=N/c2cc(C)ccc2O)cc1`, the log10 vapour pressure (mmHg) was -10.3 and the melting point came to 195 °C.
For the molecule `COc1cc([N+](=O)[O-])c2ncccc2c1`, the melting point was 159 °C.
As for `CCCCCCCCCCCCCCCCOCCCCCCCCCCCCCCCC`, the melting point came out at 55 °C and the ready biodegradability result is “not readily biodegradable”.
On to `Brc1c(Br)c(Br)c(Oc2c(Br)c(Br)c(Br)c(Br)c2Br)c(Br)c1Br`, for which the boiling point stood at 530 °C, the melting point turned out to be 295 °C and the ready biodegradability entry is “not readily biodegradable”.
Regarding `COc1ccc(O)c(C(C)(C)C)c1`, the ready biodegradability entry was “not readily biodegradable”.
Consider `Oc1c(Cl)cc(Cl)c2cccnc12`, for which the melting point amounted to 180 °C.
In the case of `Nc1cccc(C(=O)O)c1`, the melting point worked out at 173 °C and the ready biodegradability entry is “not readily biodegradable”.
The molecule `ICI` displayed a boiling point of 182 °C, a log10 Henry constant (atm·m³/mol) of -3.49, a log10 vapour pressure (mmHg) of 0.0792 and a melting point of 6.1 °C.
In the case of `CC(C(=O)O)c1ccc2c(c1)[nH]c1ccc(Cl)cc12` (configuration not stated), the melting point was determined as 198 °C.
In turn, `COc1cccc(OC)c1C#N` displayed a boiling point of 310 °C and a melting point of 119 °C.
Take `CCCCCCCCCCCCCCCCCCCCCCCCCCCCCCCCC`: the log10 biodegradation half-life (days) was 2.56, the log10 vapour pressure (mmHg) is -10.4 and the melting point came to 72 °C.
`COCC(=O)OC`: the boiling point worked out at 131 °C.
As to `O=C(O)[C@@H]1CCc2ccccc2C1`, the melting point came to 97.7 °C.
`C#C[C@]1(OC(C)=O)CC[C@H]2[C@@H]3CCC4=C/C(=N/O)CC[C@@H]4[C@H]3CC[C@@]21CC` gave a melting point of 216 °C.
For the molecule `CCN(CC)C(=S)SSC(=S)N(CC)CC`, the melting point is 71.5 °C.
Take `Cc1ccc(S(=O)(=O)c2ccc(C)cc2)cc1`: the boiling point turned out to be 406 °C and the melting point was determined as 159 °C.
With `FCC1CO1` (configuration not stated), the boiling point came to 85.5 °C.
`O=c1sc2ccccc2c(O)c1C1CC(c2ccc(-c3ccc(Br)cc3)cc2)Cc2ccccc21` (configuration not stated): the melting point came to 234 °C.
For `CC(C)[C@@H](Br)C(=O)O`, the boiling point came to 230 °C and the melting point stood at 44 °C.
Consider `Cl[Si](Cl)(c1ccccc1)c1ccccc1`, for which the boiling point was found to be 305 °C and the ready biodegradability entry is reported as “not readily biodegradable”.
The molecule `O=C(O)c1ccc(C(F)(F)F)cc1` gave a melting point of 220 °C.
In the case of `COc1ccc(C(=O)O)cc1O`, the melting point amounted to 252 °C.
The molecule `C=C(C)CC(C)(C)C` gave a boiling point of 101 °C, a log10 vapour pressure (mmHg) of 1.65 and a melting point of -93.5 °C.
Molecule `CC(C)S[C@@H]1O[C@H](CO)[C@H](O)[C@H](O)[C@H]1O` yielded a melting point of 121 °C.
In turn, `CC(C)c1cccs1` displayed a boiling point of 153 °C.
In the case of `Cc1cc(=O)oc2cc(O)ccc12`, the melting point is 196 °C.
As to `CC(C)C(O)C(C)(C)CO` (configuration not stated), the boiling point turned out to be 232 °C, the log10 vapour pressure (mmHg) is -2.35, the melting point worked out at 51.5 °C and the ready biodegradability result is recorded as “readily biodegradable”.
Take `C=C(C)c1ccccc1C`: the boiling point was 175 °C.
Consider `C=Cc1cccc(CC)c1`, for which the boiling point came to 190 °C, the log10 vapour pressure (mmHg) is -0.0947, the melting point is -101 °C and the ready biodegradability result is “not readily biodegradable”.
Take `CC=NNc1ccc([N+](=O)[O-])cc1[N+](=O)[O-]`: the melting point is 166 °C.
In turn, `c1ccc2c(c1)-c1ccc3ccc4cccc5cc-2c1c3c45` returned a boiling point of 536 °C, a log10 Henry constant (atm·m³/mol) of -6.46, a log10 Koc (L/kg) of 6.2 and a log10 biodegradation half-life (days) of 2.52. The molecule further registered a melting point of 164 °C.
Turning to `C/C=C/C(=O)OC`, the boiling point came out at 120 °C and the melting point was -42 °C.

Still in this data set, the particulars now being: fish.
On to `CCOC(=O)C(SP(=S)(OC)OC)c1ccccc1` (configuration not stated), for which the log10 BCF is 1.69 and the log10 biotransformation half-life (days) was -0.75.
The matching figures for `Nc1ccc([N+](=O)[O-])cc1`: 0.6 and -0.51.
The matching figures for `O=[N+]([O-])c1cccc(Cl)c1Cl`: 2.16 and 0.54.
The matching figures for `CCOP(=S)(OCC)SCCS(=O)(=O)CC`: 0.7 and -0.67.
As for `COc1cc(Oc2ccc(Cl)cc2Cl)ccc1[N+](=O)[O-]`, the log10 BCF came out at 3.59.
Consider `Oc1ccc(Cc2ccccc2)cc1`, for which the log10 BCF was 1.33 and the log10 biotransformation half-life (days) was -0.86.
In turn, `O=[N+]([O-])c1c(Cl)c(Cl)cc(Cl)c1Cl` yielded a log10 BCF of 3.23 and a log10 biotransformation half-life (days) of 0.49.
The molecule `Brc1c(Br)c(Br)c(Oc2c(Br)c(Br)c(Br)c(Br)c2Br)c(Br)c1Br` yielded a log10 biotransformation half-life (days) of 1.16.
In turn, `C=C(C)CC(C)(C)C` returned a log10 BCF of 2.78 and a log10 biotransformation half-life (days) of 0.12.
In turn, `CC(C)C(O)C(C)(C)CO` (configuration not stated) displayed a log10 BCF of 0 and a log10 biotransformation half-life (days) of -1.34.
